Reference: patent EP0049683A2, “Imidazo-rifamycines, process for their preparation, pharmaceutical preparations containing them and their use” (CIBA-GEIGY AG, priority 1980, dated 1982)
In brackets after ≈: the same amount, converted by molar mass.

Key:
Assay in all cases: Agar dilution MIC in DST agar (Ericsson and Sherris)
Format in all cases: cell-based
Escherichia coli 205 = conditions: for MIC Esch. 205: in vitro; for MIC: Escherichia coli, 205, in vitro, read-out: MIC Esch. 205
Description: (§1) Die antibiotische Aktivität der Testverbindungen in vitro wurde durch die Agarverdünnungsmethode nach Ericsson, H.M., und Sherris, S.C., 1971, Acta Path. Microb. Scand. Section B, Suppl. No. 217, Bd. 1-90, in DST Agara ermittelt. Die gefundenen, das Wachstum der Testorganismen noch hemmenden Minimalkonzentrationen (MIC = minimum inhibiting concentrations) werden in Mikrogramm pro Milliliter (µg/ml) für die geprüften Verbindungen in der Tabelle 1 angegeben.

Escherichia coli 2018 = conditions: for MIC Esch. 2018: in vitro; for MIC: Escherichia coli, 2018, in vitro, read-out: MIC Esch. 2018
Description: as §1

[1] = test system: Salmonella Typhimurium 277; conditions: in vitro; for MIC: Salmonella enterica, TYPHIMURIUM, read-out: MIC Salm. 277
Description: as §1

[2] = test system: Pseudomonas aeruginosa K 799/61; conditions: for MIC Pseu. 799: in vitro, agar dilution, DST agar; for MIC: Pseudomonas aeruginosa, K799/61, read-out: MIC Pseu. 799
Description: as §1

Proteus morganii 1518 = conditions: for MIC Prot. 1518: in vitro; for MIC: Morganella morganii, 1518, in vitro, read-out: MIC Prot. 1518
Description: as §1

Proteus morganii 2359 = conditions: for MIC Prot. 2359: in vitro; for MIC: Morganella morganii, 2359, in vitro, read-out: MIC Prot. 2359
Description: as §1

[3] = test system: Staphylococcus aureus 10B; conditions: in vitro; for MIC: Staphylococcus aureus, 10B, read-out: MIC Staph. 10B
Description: as §1

Row | Compound | MIC Esch. 205 (Escherichia coli 205) [µg/mL] | MIC Esch. 2018 (Escherichia coli 2018) [µg/mL] | MIC Salm. 277 [1] [µg/mL] | MIC Pseu. 799 [2] [µg/mL] | MIC Prot. 1518 (Proteus morganii 1518) [µg/mL] | MIC Prot. 2359 (Proteus morganii 2359) [µg/mL] | MIC Staph. 10B [3] [µg/mL] | MIC (Escherichia coli 205) [µg/mL] | MIC (Escherichia coli 2018) [µg/mL] | MIC [1] [µg/mL] | MIC [2] [µg/mL] | MIC (Proteus morganii 1518) [µg/mL] | MIC (Proteus morganii 2359) [µg/mL] | MIC [3] [µg/mL]
1 | 4-(2,6-Dimethyl-morpholino)-imidazolo[4,5-c]rifamycin SV [Verbindung 29] | 32 | 32 | 128 | 8 | 8 | 8 |  |  |  |  |  |  |  | 
2 | 4-(4-Heptylpiperazinyl)-imidazolo[4,5-c]rifamycin SV [Verbindung 36] | 2 | 8 | 32 | 8 | 8 | 8 |  |  |  |  |  |  |  | 
3 | 4-(4-Hexylpiperazinyl)-imidazolo[4,5-c]rifamycin SV [Verbindung 35] | 8 | 8 | 32 | 8 | 8 | 8 |  |  |  |  |  |  |  | 
4 | 4-(4-Isobutyl-2-methyl-piperazinyl)-imidazolo[4,5-c]rifamycin SV [Verbindung 75] | 8 | 8 | 32 | 32 | 2 | 8 | 0.01 |  |  |  |  |  |  | 
5 | 4-(4-Isopropyloxycarbonylpiperazinyl)-imidazolo[4,5-c]-rifamycin SV [Verbindung 68] | 32 | 32 | 32 | 8 | 8 | 32 | 0.01 |  |  |  |  |  |  | 
6 | 4-(4-Pentylpiperazinyl)-imidazolo[4,5-c]rifamycin SV [Verbindung 34] | 8 | 2 | 32 | 32 | 8 | 8 |  |  |  |  |  |  |  | 
7 | 4-(N-Butyl-N-methylamino)-imidazolo[4,5-c]rifamycin SV [Verbindung 9] | 8 | 8 | 32 | 8 | 1 | 8 |  |  |  |  |  |  |  | 
8 | 4-Thiomorpholino-imidazolo[4,5-c]rifamycin SV [Verbindung 30] | 8 | 8 | 32 | 32 | 8 | 8 |  |  |  |  |  |  |  | 
9 | 4-[4-(1-Ethylpropyl)-piperazinyl]-imidazolo[4,5-c]rifamycin SV [Verbindung 41] | 8 | 2 |  | 32 | 8 | 8 | 0.005 |  |  |  |  |  |  | 
10 | CCN(CC)c1nc2c3c(O)c4c(O)c(C)c5c(c4c2[nH]1)C(=O)C(C)(OC=CC(OC)C(C)C(OC(C)=O)C(C)C(O)C(C)C(O)C(C)C=CC=C(C)C(=O)N3)O5 (centres unmarked) [Verbindung 6, 4-Diethylamino-imidazolo[4,5-c]rifamycin SV] |  |  |  |  |  |  |  | 128 (≈ 161 µM) | 128 (≈ 161 µM) | 128 (≈ 161 µM) | 128 (≈ 161 µM) | 128 (≈ 161 µM) | 128 (≈ 161 µM) | 
11 | CO[C@H]1/C=C/O[C@@]2(C)Oc3c(C)c(O)c4c(O)c(c5[nH]c(N6CCc7ccccc76)nc5c4c3C2=O)NC(=O)/C(C)=C\C=C\[C@H](C)[C@H](O)[C@@H](C)[C@@H](O)[C@@H](C)[C@H](OC(C)=O)[C@@H]1C [Verbindung 20, 4-Indolinyl-imidazolo[4,5-c]rifamycin SV] |  |  |  |  |  |  |  | 8 (≈ 9.54 µM) | 8 (≈ 9.54 µM) | 32 (≈ 38.1 µM) | 16 (≈ 19.1 µM) | 4 (≈ 4.77 µM) | 8 (≈ 9.54 µM) | 
12 | CCCC(C)CN1CCN(c2nc3c([nH]2)c2c(O)c4c(O)c(C)c5c(c43)C(=O)[C@@](C)(O/C=C/[C@H](OC)[C@@H](C)[C@@H](OC(C)=O)[C@H](C)[C@H](O)[C@H](C)[C@@H](O)[C@@H](C)/C=C/C=C(/C)C(=O)N2)O5)CC1 (some centres unmarked) [Verbindung 39, 4-[4-(2-Methylpentyl)-piperazinyl]-imidazolo[4,5-c]-rifamycin SV] |  |  |  |  |  |  |  | 8 (≈ 8.99 µM) | 8 (≈ 8.99 µM) | 32 (≈ 36 µM) | 32 (≈ 36 µM) | 8 (≈ 8.99 µM) | 8 (≈ 8.99 µM) | 
13 | CCC(C)CCN1CCN(c2nc3c([nH]2)c2c(O)c4c(O)c(C)c5c(c43)C(=O)[C@@](C)(O/C=C/[C@H](OC)[C@@H](C)[C@@H](OC(C)=O)[C@H](C)[C@H](O)[C@H](C)[C@@H](O)[C@@H](C)/C=C/C=C(/C)C(=O)N2)O5)CC1 (some centres unmarked) [Verbindung 42, 4-[4-(3-Methylpentyl)-piperazinyl]-imidazolo[4,5-c]-rifamycin SV] |  |  |  |  |  |  |  | 8 (≈ 8.99 µM) | 8 (≈ 8.99 µM) | 32 (≈ 36 µM) | 32 (≈ 36 µM) | 8 (≈ 8.99 µM) | 8 (≈ 8.99 µM) | 0.005 (≈ 0.00562 µM)
14 | C=CCN1CCN(c2nc3c([nH]2)c2c(O)c4c(O)c(C)c5c(c43)C(=O)[C@@](C)(O/C=C/[C@H](OC)[C@@H](C)[C@@H](OC(C)=O)[C@H](C)[C@H](O)[C@H](C)[C@@H](O)[C@@H](C)/C=C/C=C(/C)C(=O)N2)O5)CC1 [Verbindung 44, 4-(4-Allylpiperazinyl)-imidazolo[4,5-c]rifamycin SV] |  |  |  |  |  |  |  | 8 (≈ 9.46 µM) | 8 (≈ 9.46 µM) | 32 (≈ 37.8 µM) | 32 (≈ 37.8 µM) | 8 (≈ 9.46 µM) | 8 (≈ 9.46 µM) | 
15 | C=C(C)CN1CCN(c2nc3c([nH]2)c2c(O)c4c(O)c(C)c5c(c43)C(=O)[C@@](C)(O/C=C/[C@H](OC)[C@@H](C)[C@@H](OC(C)=O)[C@H](C)[C@H](O)[C@H](C)[C@@H](O)[C@@H](C)/C=C/C=C(/C)C(=O)N2)O5)CC1 [Verbindung 46, 4-[4-(2-Methyl-2-propenyl)-piperazinyl]-imidazolo[4,5-c]-rifamycin SV] |  |  |  |  |  |  |  | 32 (≈ 37.2 µM) | 8 (≈ 9.3 µM) | 32 (≈ 37.2 µM) | 32 (≈ 37.2 µM) | 8 (≈ 9.3 µM) | 8 (≈ 9.3 µM) | 
16 | CO[C@H]1/C=C/O[C@@]2(C)Oc3c(C)c(O)c4c(O)c(c5nc(N6CCN(C7CCCCC7)CC6)[nH]c5c4c3C2=O)NC(=O)/C(C)=C\C=C\[C@H](C)[C@H](O)[C@@H](C)[C@@H](O)[C@@H](C)[C@H](OC(C)=O)[C@@H]1C [Verbindung 51, 4-(4-Cyclohexylpiperazinyl)-imidazolo[4,5-c]rifamycin SV] |  |  |  |  |  |  |  | 8 (≈ 9.01 µM) | 32 (≈ 36 µM) | 32 (≈ 36 µM) | 8 (≈ 9.01 µM) | 8 (≈ 9.01 µM) | 8 (≈ 9.01 µM) | 0.01 (≈ 0.0113 µM)
17 | CO[C@H]1/C=C/O[C@@]2(C)Oc3c(C)c(O)c4c(O)c(c5nc(N6CCN(c7ccccc7)CC6)[nH]c5c4c3C2=O)NC(=O)/C(C)=C\C=C\[C@H](C)[C@H](O)[C@@H](C)[C@@H](O)[C@@H](C)[C@H](OC(C)=O)[C@@H]1C [Verbindung 52, 4-(4-Phenylpiperazinyl)-imidazolo[4,5-c]rifamycin SV] |  |  |  |  |  |  |  | 32 (≈ 36.3 µM) | 8 (≈ 9.07 µM) | 32 (≈ 36.3 µM) | 32 (≈ 36.3 µM) | 8 (≈ 9.07 µM) | 8 (≈ 9.07 µM) | 
18 | CO[C@H]1/C=C/O[C@@]2(C)Oc3c(C)c(O)c4c(O)c(c5nc(N6CCN(CC7CCCCCC7)CC6)[nH]c5c4c3C2=O)NC(=O)/C(C)=C\C=C\[C@H](C)[C@H](O)[C@@H](C)[C@@H](O)[C@@H](C)[C@H](OC(C)=O)[C@@H]1C [Verbindung 56] |  |  |  |  |  |  |  | 8 (≈ 8.73 µM) | 8 (≈ 8.73 µM) | 32 (≈ 34.9 µM) | 32 (≈ 34.9 µM) | 8 (≈ 8.73 µM) | 8 (≈ 8.73 µM) | 0.005 (≈ 0.00546 µM)
